Source: patent publication US10392389B2, “Heterocyclic compounds for the inhibition of PASK” (BioEnergenix, LLC, priority 2012, dated 2019)
pIC50: −log10 of the molar value.

Tests used:
PASK = target: T1, PASK (UniProt #Q96RG2; human recombinant N-terminal GST tagged construct, residues 879-1323) (Homo sapiens, UniProt Q96RG2); assay: PASK ATP Radiochemical Assay; assay type: biochemical; conditions: 33P-ATP, Myelin Basic Protein substrate, read-out: IC50 Kinase Domain
T1 construct: N-terminal GST tagged construct, residues 879-1323; GST (N); host or cells: insect cells
T1 sequence (Q96RG2 879-1323, stated change not applied): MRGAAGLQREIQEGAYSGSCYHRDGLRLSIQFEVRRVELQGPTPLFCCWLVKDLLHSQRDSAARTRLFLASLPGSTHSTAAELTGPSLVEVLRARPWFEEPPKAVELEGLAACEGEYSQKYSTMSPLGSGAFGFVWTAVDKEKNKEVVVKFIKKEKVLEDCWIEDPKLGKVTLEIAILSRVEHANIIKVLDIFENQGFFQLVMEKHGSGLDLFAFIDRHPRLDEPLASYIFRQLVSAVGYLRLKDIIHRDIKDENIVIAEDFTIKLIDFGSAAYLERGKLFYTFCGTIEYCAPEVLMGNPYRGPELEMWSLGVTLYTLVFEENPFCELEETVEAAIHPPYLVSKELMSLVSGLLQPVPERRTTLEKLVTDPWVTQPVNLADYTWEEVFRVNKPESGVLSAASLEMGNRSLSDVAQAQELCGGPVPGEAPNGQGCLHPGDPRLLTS
Protocol: Biochemical Assay for hPASK Activity
PASK ATP Radiochemical Assay
(§1) Purified PASK (UniProt #Q96RG2; human recombinant N-terminal GST tagged construct, residues 879-1323) from insect cells (final concentration 5 nM) is added to freshly prepared Base Reaction Buffer containing 20 mM HEPES (pH 7.5), 10 mM MgCl2, 1 mM EGTA, 0.02% Brij35, 0.02 mg/ml BSA, 0.1 mM Na3VO4, 2 mM DTT, 1% DMSO and Myelin Basic Protein (20 μM final). Test compounds in DMSO are then added and the mixture, followed by delivery of ^33P-ATP (specific activity 0.01 μCi/μl final) to initiate the reaction. The kinase reaction is incubated for 120 min at room temperature. The entire reaction mixture is washed through onto a P81 Phosphocellulose paper and washed three times for 10 minutes in 75 mM phosphoric acid and once in methanol prior to drying and scintillation counting.

[1] = target: T2, CK2a2 (NP_001887; human full-length protein, GST tagged) (Homo sapiens, UniProt P19784); assay: Biochemical Assay for CK2 Activity; conditions: 33P-ATP radiochemical assay, CK2 sub [RRRDDDSDDD]
T2 construct: human full-length protein, GST tagged; GST; host or cells: insect cells
T2 sequence (P19784 whole entry): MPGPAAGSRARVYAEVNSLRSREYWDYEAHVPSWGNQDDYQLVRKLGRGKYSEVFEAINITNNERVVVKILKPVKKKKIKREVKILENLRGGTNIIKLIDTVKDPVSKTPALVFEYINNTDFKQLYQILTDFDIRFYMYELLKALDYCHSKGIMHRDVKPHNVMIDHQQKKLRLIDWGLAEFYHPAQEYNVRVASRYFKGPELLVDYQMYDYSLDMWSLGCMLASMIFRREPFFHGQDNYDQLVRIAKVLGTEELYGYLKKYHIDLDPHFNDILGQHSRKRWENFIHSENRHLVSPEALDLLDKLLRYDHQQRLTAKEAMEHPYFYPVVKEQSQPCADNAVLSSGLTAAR
Protocol: Biochemical Assay for CK2 Activity
as §1, with “Purified CK2a2 (NP_001887;” for “Purified PASK (UniProt #Q96RG2;”, “human full-length protein,” for “human recombinant N-terminal”, “GST tagged)” for “GST tagged construct, residues 879-1323)”, “concentration 1.2” for “concentration 5”, “mM Hepes” for “mM HEPES”, “and CK2 sub [RRRDDDSDDD]” for “and Myelin Basic Protein”

PASK (Invitrogen) = target: T3, PASK (Invitrogen) (Homo sapiens, UniProt Q96RG2); assay: PAS Kinase FRET Assay; assay type: biochemical; conditions: PAS kinase TR-FRET assay (665 nm/615 nm); read-out: IC50 Kinase Domain
T3 construct: IC50 Kinase Domain; purchased Invitrogen
T3 sequence (Q96RG2 999-1251 limits assumed): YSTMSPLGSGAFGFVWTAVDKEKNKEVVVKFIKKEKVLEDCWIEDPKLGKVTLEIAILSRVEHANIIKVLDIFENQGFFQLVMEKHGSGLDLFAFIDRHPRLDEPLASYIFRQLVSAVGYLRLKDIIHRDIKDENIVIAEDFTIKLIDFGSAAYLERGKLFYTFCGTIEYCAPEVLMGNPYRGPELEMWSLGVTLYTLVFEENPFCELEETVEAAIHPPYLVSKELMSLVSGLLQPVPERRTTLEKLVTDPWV
Summary of the method: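 PASK phosphorylates a ULight-peptide with ATP in 50 mM HEPES, 10 mM MgCl2, 1 mM EGTA, 0.01% Tween-20, 2 mM DTT for 2 h at 25° C in the dark. Compounds are added as 4× serial dilutions (top 12×10^−5 M at 4×). After stopping, an Eu anti-phospho-substrate antibody is added for 1 h and TR-FRET is read at 665/615 nm.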

[2] = target: T4, PIM1 (NP_002639; human full-length protein, 6×His tagged) (Homo sapiens, UniProt P11309); assay: Biochemical Assay for PIM1 Activity; conditions: 33P-ATP radiochemical assay, S6K/Rsk2 peptide 2 substrate
T4 construct: human full-length protein, 6×His tagged; 6xHis; host or cells: insect cells
T4 sequence (P11309 whole entry): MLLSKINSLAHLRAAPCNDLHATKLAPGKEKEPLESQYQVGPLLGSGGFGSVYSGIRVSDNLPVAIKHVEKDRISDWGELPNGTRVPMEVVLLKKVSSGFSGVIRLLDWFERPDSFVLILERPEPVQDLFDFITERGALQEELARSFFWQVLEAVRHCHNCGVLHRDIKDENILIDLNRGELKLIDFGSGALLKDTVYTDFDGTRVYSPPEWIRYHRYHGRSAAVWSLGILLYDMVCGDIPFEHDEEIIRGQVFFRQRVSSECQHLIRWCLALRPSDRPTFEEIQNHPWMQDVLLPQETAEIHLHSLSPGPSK
Protocol: Biochemical Assay for PIM1 Activity
as §1, with “Purified PIM1 (NP_002639;” for “Purified PASK (UniProt #Q96RG2;”, “human full-length protein, 6×His tagged)” for “human recombinant N-terminal GST tagged construct, residues 879-1323)”, “concentration 1.0” for “concentration 5”, “mM Hepes” for “mM HEPES”, “and substrate S6K/Rsk2 peptide 2 [KKRNRTLTK]” for “and Myelin Basic Protein”, “activity 10” for “activity 0.01”

SMILES	pIC50 (PASK)	pIC50 [1]	pIC50 (PASK (Invitrogen))	pIC50 [2]
CCn1nccc1-c1cnn2c(=O)cc(-c3ccc4c(cnn4CC)c3)[nH]c12 [Example 67, 5-(1-ethyl-1H-indazol-5-yl)-3-(1-ethyl-1H-pyrazol-5-yl)pyrazolo[1,5-a]pyrimidin-7(4H)-one]	≥ 5.00	≥ 5.00	≥ 5.00	≥ 5.00
CCn1ncc2cc(-c3cc(=O)n4ncc(-c5nc(C)co5)c4[nH]3)ccc21 [Example 13, 5-(1-Ethyl-1H-indazol-5-yl)-3-(4-methyl-1,3-oxazol-2-yl)-4H,7H-pyrazolo[1,5-a]pyrimidin-7-one]	≥ 5.00	≥ 5.00	≥ 5.00	≥ 5.00
CCn1nccc1-c1cnn2c(=O)cc(-c3ccc(Cl)c(OCC(F)(F)F)c3)[nH]c12 [Example 94, 5-(4-chloro-3-(2,2,2-trifluoroethoxy)phenyl)-3-(1-ethyl-1H-pyrazol-5-yl)pyrazolo[1,5-a]pyrimidin-7(4H)-one]	≥ 5.00	≥ 5.00	≥ 5.00	≥ 5.00
O=c1cc(-c2ccc(Cl)cc2)[nH]c2c(-c3nccs3)cnn12 [Example 57, 5-(4-chlorophenyl)-3-(thiazol-2-yl)pyrazolo[1,5-a]pyrimidin-7(4H)-one]	≥ 5.00	≥ 5.00	≥ 5.00	≥ 5.00
Cn1ncc2cc(-c3cc(=O)n4ncc(-c5ncco5)c4[nH]3)ccc21 [Example 73, 5-(1-methyl-1H-indazol-5-yl)-3-(oxazol-2-yl)-4H,7H-pyrazolo[1,5-a]pyrimidin-7-one]	≥ 5.00	≥ 5.00	≥ 5.00	≥ 5.00
Cn1ccc(-c2cnn3c(=O)cc(-c4ccc5c(cnn5C)c4)[nH]c23)n1 [Example 83, 5-(1-methyl-1H-indazol-5-yl)-3-(1-methyl-1H-pyrazol-3-yl)pyrazolo[1,5-a]pyrimidin-7(4H)-one]	≥ 5.00	≥ 5.00	≥ 5.00	≥ 5.00
COc1cc(-c2cc(=O)n3ncc(-c4ncc(C)s4)c3[nH]2)ccc1Cl [Example 56, 5-(4-chloro-3-methoxyphenyl)-3-(5-methylthiazol-2-yl)pyrazolo[1,5-a]pyrimidin-7(4H)-one]	≥ 5.00	≥ 5.00	≥ 5.00	≥ 5.00
Cn1ccc(-c2cnn3c(=O)cc(-c4ccc(Cl)c(OCC(F)(F)F)c4)[nH]c23)n1 [Example 96, 5-(4-chloro-3-(2,2,2-trifluoroethoxy)phenyl)-3-(1-methyl-1H-pyrazol-3-yl)pyrazolo[1,5-a]pyrimidin-7(4H)-one]	≥ 5.00	< 5.00	≥ 5.00	≥ 5.00
CCn1ncc2cc(-c3cc(=O)n4ncc(-c5cc(C)no5)c4[nH]3)ccc21 [Example 86, 5-(1-ethyl-1H-indazol-5-yl)-3-(3-methylisoxazol-5-yl)pyrazolo[1,5-a]pyrimidin-7(4H)-one]	≥ 5.00	≥ 5.00	≥ 5.00	≥ 5.00
O=c1cc(-c2ccc(Cl)c(Cl)c2)[nH]c2c(-c3cc[nH]n3)cnn12 [Example 70, 5-(3,4-dichlorophenyl)-3-(1H-pyrazol-3-yl)pyrazolo[1,5-a]pyrimidin-7(4H)-one]	≥ 5.00	≥ 5.00	≥ 5.00	≥ 5.00
CCn1ncc2cc(-c3cc(=O)n4ncc(-c5ncco5)c4[nH]3)ccc21 [Example 20, 5-(1-Ethyl-1H-indazol-5-yl)-3-(1,3-oxazol-2-yl)-4H,7H-pyrazolo[1,5-a]pyrimidin-7-one]	≥ 5.00	≥ 5.00	≥ 5.00	≥ 5.00
COc1cc(-c2cc(=O)n3ncc(-c4cc(C)n[nH]4)c3[nH]2)ccc1Cl [Example 69, 5-(4-chloro-3-methoxyphenyl)-3-(3-methyl-1H-pyrazol-5-yl)pyrazolo[1,5-a]pyrimidin-7(4H)-one]	≥ 5.00	≥ 5.00	≥ 5.00	≥ 5.00
Cc1coc(-c2cnn3c(=O)cc(-c4ccc5c(c4)OCO5)[nH]c23)n1 [Example 4, 5-(2H-1,3-benzodioxol-5-yl)-3-(4-methyl-1,3-oxazol-2-yl)-4H,7H-pyrazolo[1,5-a]pyrimidin-7-one]	≥ 5.00	≥ 5.00	≥ 5.00	≥ 5.00
Cc1cnc(-c2cnn3c(=O)cc(-c4ccc5c(c4)OCO5)[nH]c23)o1 [Example 3, 5-(2H-1,3-benzodioxol-5-yl)-3-(5-methyl-1,3-oxazol-2-yl)-4H,7H-pyrazolo[1,5-a]pyrimidin-7-one]	≥ 5.00	≥ 5.00	≥ 5.00	≥ 5.00
Cc1csc(-c2cnn3c(=O)cc(-c4ccc(Cl)cc4)[nH]c23)n1 [Example 58, 5-(4-chlorophenyl)-3-(4-methylthiazol-2-yl)pyrazolo[1,5-a]pyrimidin-7(4H)-one]	≥ 5.00	≥ 5.00	≥ 5.00	≥ 5.00
CCn1ncc2cc(-c3cc(=O)n4ncc(-c5oncc5C)c4[nH]3)ccc21 [Example 87, 5-(1-ethyl-1H-indazol-5-yl)-3-(4-methyl-1,2-oxazol-5-yl)-4H,7H-pyrazolo[1,5-a]pyrimidin-7-one]	≥ 5.00	≥ 5.00	≥ 5.00	≥ 5.00
CCc1coc(-c2cnn3c(=O)cc(-c4ccc5c(c4)OCO5)[nH]c23)n1 [Example 16, 5-(2H-1,3-benzodioxol-5-yl)-3-(4-ethyl-1,3-oxazol-2-yl)-4H,7H-pyrazolo[1,5-a]pyrimidin-7-one]	≥ 5.00	≥ 5.00	≥ 5.00	≥ 5.00
CCn1ncc2cc(-c3cc(=O)n4ncc(-c5cc[nH]n5)c4[nH]3)ccc21 [Example 55, 5-(1-ethyl-1H-indazol-5-yl)-3-(1H-pyrazol-3-yl)pyrazolo[1,5-a]pyrimidin-7(4H)-one]	≥ 5.00	≥ 5.00	≥ 5.00	≥ 5.00
Cc1cnc(-c2cnn3c(=O)cc(-c4ccc5[nH]nnc5c4)[nH]c23)o1 [Example 5, 5-(1H-1,2,3-benzotriazol-5-yl)-3-(5-methyl-1,3-oxazol-2-yl)-4H,7H-pyrazolo[1,5-a]pyrimidin-7-one]	≥ 5.00	≥ 5.00	≥ 5.00	≥ 5.00
CCn1nccc1-c1cnn2c(=O)cc(-c3ccc(Cl)c(Cl)c3)[nH]c12 [Example 95, 5-(3,4-dichlorophenyl)-3-(1-ethyl-1H-pyrazol-5-yl)pyrazolo[1,5-a]pyrimidin-7(4H)-one]	≥ 5.00	≥ 5.00	≥ 5.00	≥ 5.00
